Results published in US20190320654A1, “VOLATILE ORGANIC COMPOUNDS FOR INHIBITING FUNGAL GROWTH” (Georgia State University Research Foundation, Inc., priority 2014, published 2019).

How the values were obtained:
[1] = test system: P. destructans mycelial plugs; assay: VOC exposure assay with P. destructans mycelial plugs, radial growth area; assay type: cell-based, Pseudogymnoascus destructans; conditions: for inhibition of radial mycelial growth: 3 μl, up to 14 days
Source text: (§1) Volatile organic compounds previously shown to be produced by bacteria [Chuankun X, et al. Soil Biol Biochem. 2004 36:1997-2004; Fernando W G D, et al. Soil Biol Biochem. 2005 37:955-64] were screened for anti-P. destructans activity via VOC exposure to spores and mycelial plugs. The VOCs included: decanal; 2-ethyl-1-hexanol; nonanal; benzothiazole; benzaldehyde; and N,N-dimethyloctylamine (Sigma-Aldrich, Missouri). All VOCs were chosen based on their identification in fungistatic soils and their observed production in bacteria [Chuankun X, et al. Soil Biol Biochem. 2004 36:1997-2004; Fernando W G D, et al. Soil Biol Biochem. 2005 37:955-64]. All VOCs purchased as pure, liquid, research grade reagents and used directly, without modification, in all subsequent assays. A single-compartment Petri plate (150 mm×15 mm) was used for a contained airspace to assess P. destructans growth characteristics in the presence of fungistatic VOCs. Ten microliters of P. destructans conidia suspension (10^6 conidia ml^−1 in PBS) was spread onto SDA plates (35 mm×10 mm). Aliquots of 30, 3.0, or 0.3 μl of each VOC corresponding to maximum possible relative concentrations ranging from 113 ppm (v/v) to 1.13 ppm (v/v) were pipetted onto a sterile filter paper disk (12.7 mm) on a watch glass (75 mm). Each VOC containing disk and watch glass was placed inside a large Petri plate (150 mm 9 15 mm) along with a P. destructans-inoculated SDA plate (35 mm×10 mm) (FIG. 6). P. destructans mycelial plugs cut from the leading edge of actively growing colonies were inserted into fresh SDA plates (35 mm×10 mm) and placed in large Petri plates (150 mm×15 mm) with each formulation or pure VOC containing paper disk and sealed with parafilm M (Sigma-Aldrich, Missouri). […] Unexposed cultures and the addition of activated carbon to exposure assays served as negative controls for each trial. Anti-P. destructans activity was scored on a plus/minus scale for conidia-inoculated plates, and the radial growth from mycelial plugs was used to determine percent inhibition by comparing growth area of VOC exposed plugs to unexposed controls. All assays were performed in triplicate and averaged.
Filamentous fungi grow by hyphae elongation and not by distinct cellular division. Accordingly, measuring the difference between the area growth of control agent-exposed mycelial plugs and control plugs has been a vetted method for assessing antimicrobial susceptibility [Fernando W G D, et al. Soil Biol Biochem. 2005 37:955-64; Liu W, et al. Curr Res Bacteriol. 2008 1:128-34; Strobel G A, et al. Microbiology. 2007 153:2613-20]. The use of a ruler to measure the area of mycelial growth of filamentous fungi has its own challenges. Mycelial plugs will often grow asymmetrically, either naturally or because of exposure to the compound being tested. To provide more accurate measurement of mycelial growth, a digital photography and analysis technique was developed.
The GIMP (GNU Image Manipulation Program) is open-source, freely distributed software for image editing and authoring, compatible with GNU/Linux, Microsoft Windows, Mac OS X, Sun OpenSolaris, and FreeBSD operating systems. This software allows for the direct measurement of the number of pixels in a given selected area of a photograph. GIMP version 2.8.2 for Microsoft Windows was used at the time of this writing. A Nikon D3100 digital single lens reflex camera with an 18-55 mm lens was used to capture images. A standard three-leg tripod was used for support during capture.
The camera was attached to the tripod and aimed down to a surface to provide a consistent distance from the lens to the mycelial surface being photographed; ensuring the same pixel to millimeter ratio was retained for all acquired images. Images of mycelial plugs had their corresponding image numbers catalogued for later identification. […]

P. destructans conidia = assay: VOC exposure assay with P. destructans conidia in a contained airspace; for anti-P. destructans activity, growth from conidia: key: +: growth from spores; −: no visible growth; assay type: cell-based, Pseudogymnoascus destructans; conditions: for inhibitory activity on conidia: 11 days of exposure; for anti-P. destructans activity against conidia / inhibition of conidia with activated carbon: 30 μl; for anti-P. destructans activity against conidia: closed system; for inhibition of conidia with activated carbon: control plates containing 1 g activated carbon
Source text: as §1

[2] = 3 μl VOC, 7 day exposure, incubated with activated carbon
[3] = 3 μl VOC, 10 day exposure, incubated with activated carbon
[4] = 30 μl VOC, incubated with activated carbon, 15° C.

Structure (SMILES): CCCCCCCCCC=O [Decanal, decanal]
- reduction in growth area ([1]; 0.3 μl, 4° C., 35 days post-inoculation): greater than 99%
- inhibition of radial mycelial growth ([1]; 15° C.): only minor reductions in radial growth
- reduction in growth as compared to unexposed controls ([1]; 30 μl, 15° C., 14 days of exposure): 83%
- anti-P. destructans activity, growth from conidia (P. destructans conidia; 3 μl VOC, 7 day exposure): −
- anti-P. destructans activity, growth from conidia (P. destructans conidia; [2]): +
- anti-P. destructans activity, growth from conidia (P. destructans conidia; 3 μl VOC, 10 day exposure): −
- anti-P. destructans activity, growth from conidia (P. destructans conidia; [3]): +
- inhibitory activity on conidia (P. destructans conidia; 3 μl): demonstrated inhibitory activity
- anti-P. destructans activity, growth from conidia (P. destructans conidia; 30 μl VOC, 15° C.): −
- anti-P. destructans activity, growth from conidia (P. destructans conidia; [4]): +
- anti-P. destructans activity against conidia (P. destructans conidia; 15° C.): demonstrated anti-P. destructans activity
- inhibition of conidia with activated carbon (P. destructans conidia): no inhibition

Structure (SMILES): CCCCCCCCC=O [Nonanal, nonanal]
- anti-P. destructans activity, growth from conidia (P. destructans conidia; 3 μl VOC, 7 day exposure): −
- anti-P. destructans activity, growth from conidia (P. destructans conidia; [2]): +
- anti-P. destructans activity, growth from conidia (P. destructans conidia; 3 μl VOC, 10 day exposure): −
- anti-P. destructans activity, growth from conidia (P. destructans conidia; [3]): +
- inhibitory activity on conidia (P. destructans conidia; 3 μl): demonstrated inhibitory activity
- anti-P. destructans activity, growth from conidia (P. destructans conidia; 30 μl VOC, 15° C.): −
- anti-P. destructans activity, growth from conidia (P. destructans conidia; [4]): −
- anti-P. destructans activity against conidia (P. destructans conidia; 15° C.): demonstrated anti-P. destructans activity

Structure (SMILES): O=Cc1ccccc1 [Benzaldehyde, benzaldehyde]
- anti-P. destructans activity, growth from conidia (P. destructans conidia; 3 μl VOC, 7 day exposure): −
- anti-P. destructans activity, growth from conidia (P. destructans conidia; [2]): +
- anti-P. destructans activity, growth from conidia (P. destructans conidia; 3 μl VOC, 10 day exposure): +
- anti-P. destructans activity, growth from conidia (P. destructans conidia; [3]): +
- anti-P. destructans activity, growth from conidia (P. destructans conidia; 30 μl VOC, 15° C.): −
- anti-P. destructans activity, growth from conidia (P. destructans conidia; [4]): +
- anti-P. destructans activity against conidia (P. destructans conidia; 15° C.): demonstrated anti-P. destructans activity
- inhibition of conidia with activated carbon (P. destructans conidia): no inhibition

Structure (SMILES): CCCCC(CC)CO (stereo not drawn) [2-ethyl-1-hexanol]
- anti-P. destructans activity, growth from conidia (P. destructans conidia; 3 μl VOC, 7 day exposure): −
- anti-P. destructans activity, growth from conidia (P. destructans conidia; [2]): +
- anti-P. destructans activity, growth from conidia (P. destructans conidia; 3 μl VOC, 10 day exposure): −
- anti-P. destructans activity, growth from conidia (P. destructans conidia; [3]): +
- inhibitory activity on conidia (P. destructans conidia; 3 μl): demonstrated inhibitory activity
- anti-P. destructans activity, growth from conidia (P. destructans conidia; 30 μl VOC, 15° C.): −
- anti-P. destructans activity, growth from conidia (P. destructans conidia; [4]): +
- anti-P. destructans activity against conidia (P. destructans conidia; 15° C.): demonstrated anti-P. destructans activity
- inhibition of conidia with activated carbon (P. destructans conidia): no inhibition

Structure (SMILES): CSSSC [dimethyltrisulfide]
- anti-P. destructans activity against conidia (P. destructans conidia; 15° C.): demonstrated anti-P. destructans activity

Structure (SMILES): CCCCCCCCN(C)C [N,N-dimethyloctylamine]
- effect on radial growth as compared to unexposed controls ([1]; 0.3 μl, 15° C.): induced growth
- inhibition of radial mycelial growth ([1]; 15° C.): only minor reductions in radial growth
- anti-P. destructans activity, growth from conidia (P. destructans conidia; 3 μl VOC, 7 day exposure): +
- anti-P. destructans activity, growth from conidia (P. destructans conidia; [2]): +
- anti-P. destructans activity, growth from conidia (P. destructans conidia; 3 μl VOC, 10 day exposure): +
- anti-P. destructans activity, growth from conidia (P. destructans conidia; [3]): +
- inhibition of growth from conidia (P. destructans conidia; 3 μl, 7 days): unable to completely inhibit
- anti-P. destructans activity, growth from conidia (P. destructans conidia; 30 μl VOC, 15° C.): −
- anti-P. destructans activity, growth from conidia (P. destructans conidia; [4]): −
- anti-P. destructans activity against conidia (P. destructans conidia; 15° C.): demonstrated anti-P. destructans activity

Structure (SMILES): c1ccc2scnc2c1 [Benzothiazole, benzothiazole]
- reduction in radial growth ([1]; 0.3 μl, 15° C., 14 days of exposure): 60%
- anti-P. destructans activity, growth from conidia (P. destructans conidia; 3 μl VOC, 7 day exposure): −
- anti-P. destructans activity, growth from conidia (P. destructans conidia; [2]): +
- anti-P. destructans activity, growth from conidia (P. destructans conidia; 3 μl VOC, 10 day exposure): +
- anti-P. destructans activity, growth from conidia (P. destructans conidia; [3]): +
- colony morphology of cultures from conidia (P. destructans conidia; 3 μl, without activated carbon): unique colony morphology characterized by increased pigmentation of the underside of the culture and diffusion of pigment into the growth media
- anti-P. destructans activity, growth from conidia (P. destructans conidia; 30 μl VOC, 15° C.): −
- anti-P. destructans activity, growth from conidia (P. destructans conidia; [4]): −
- anti-P. destructans activity against conidia (P. destructans conidia; 15° C.): demonstrated anti-P. destructans activity
